# Measured values published in PMC12339328, “Therapeutic effect and mechanism of gigantol on hyperuricemia” (Frontiers in Endocrinology, 2025).
# Values joined by “and” are separate entries in the source; they are usually repeats but may differ in a detail not shown here. Identical values can stand only once. Like-named read-outs stand apart in the source and are kept apart here.
# Legend:
# [1] = system: renal tissue in mice with HUA; assay: Renal histopathology of HUA mice (HE staining); format: in vivo; details: 200×, gigantol-treated groups
# Description: (§1) The kidney and liver tissues were fixed with 4% paraformaldehyde solution. After paraffin embedding and sectioning, the paraffin on the slide was removed with xylene and soaked in different concentrations of ethanol and deionized water. The liver and kidney tissues were stained according to the HE staining procedure, and then the morphology of the kidney tissues and liver tissues was observed under the microscope.
# AML12 cells = assay: UA level in AML12 HUA cell model; format: cell-based, mouse; details: adenosine + XOD induced; gigantol 25, 50, 100 μmol/L; p < 0.001
# [2] = system: liver tissue in mice with HUA; assay: Liver histopathology of HUA mice (HE staining); format: in vivo; details: 200×, gigantol 5, 10, 20 mg/kg
# Description: as §1
# TNF-α [3] = assay: TNF-α level in HK-2 HUA cell model (ELISA); format: cell-based, human; details: adenosine and XOD induction; gigantol 25, 50, 100 μmol/L
# Experimental: (§2) HK-2 cells were treated as described above. The supernatant of the medium was collected, and the levels of proinflammatory cytokines (TNF-α, IL-6, and IL-1β) and the NLRP3 inflammasome component in the supernatant were detected using commercially available ELISA kits according to the manufacturers’ protocols.
# GLUT9 = GLUT9 protein expression in kidney of HUA mice (Western blot); format: in vivo; details: gigantol, dose-dependent, vs model group
# IL-6 [4] = assay: IL-6 level in serum and kidney of HUA mice (ELISA); format: in vivo; details: HUA mice treated with gigantol; vs model group; p < 0.01
# Experimental: (§3) Blood obtained from mice in each group was centrifuged at 3,000 r/min for 15 min in a low-temperature high-speed centrifuge. Then, the serum was separated, and the levels of UA, CRE, and BUN in the serum were measured by the kits. The levels of TNF-α, IL-1β, IL-6, and NLRP3 in serum were detected by ELISA kits. Liver and kidney tissues were homogenized by adding ice-cold saline, and homogenates were centrifuged at 12,000 r/min for 10 min. XOD activity in the supernatant of the liver tissues was measured, and the levels of TNF-α, IL-1β, IL-6, and NLRP3 in the supernatant of the kidney tissues were measures by ELISA kits.
# IL-6 [5] = assay: IL-6 level in HK-2 HUA cell model (ELISA); format: cell-based, human; details: adenosine and XOD induction; gigantol 25, 50, 100 μmol/L
# Experimental: as §2
# ASC [6] = assay: ASC protein expression in HK-2 cells (Western blot); details: for asc / β (reference protein) ratio / asc protein expression, band value: HK-2, replicates 1-3; for ASC protein level in HK-2 cells: HUA cell model
# OAT1 = OAT1 protein expression in HK-2 cells (Western blot); details: for OAT1 / β (reference protein) ratio / OAT1 protein expression, band value: HK-2, replicates 1-3
# XOD [7] = details: for xod / β (reference protein) ratio / xod protein expression, band value: AML12, replicates 1-3; for XOD protein expression in AML12 cells: HUA cell model, gigantol 25, 50, 100 µmol/L, vs model group, p < 0.001
# OAT3 = OAT3 protein expression in HK-2 cells (Western blot); details: for OAT3 / β (reference protein) ratio / OAT3 protein expression, band value: HK-2, replicates 1-3
# NLRP3 [8] = assay: NLRP3 protein expression in kidney of HUA mice (Western blot); format: in vivo; details: gigantol high-dose group (20 mg/kg), vs model group, p < 0.01
# XOD [9] = details: HUA cell model; gigantol 25, 50, 100 μmol/L, dose-dependent; vs model; p < 0.05, p < 0.001, p < 0.001
# [10] = rat, in vivo
# Experimental: Whole blood was taken into heparinized tubes at predefined time points (2, 5, 10, 20, and 30 min, and 1, 2, 4, 6, 8, and 12 h) after administration, and plasma was separated by centrifugation and stored at −20°C until testing. […] Whole blood was taken into heparinized tubes at predefined time points (2, 5, 10, 20, and 30 min, and 1, 2, 4, 6, 8, and 12 h) after administration, and plasma was separated by centrifugation and stored at −20°C until testing. […] Pharmacokinetic parameters were calculated by using the pharmacokinetics software WinNonlin 8.1.
# IL-1β [11] = assay: IL-1β content in serum and kidney of HUA mice (ELISA); format: in vivo; details: gigantol low, medium, high dose intragastric, vs model group
# Experimental: as §3
# caspase-1 = assay: Caspase-1 protein expression in kidney of HUA mice (Western blot); format: in vivo; details: gigantol high-dose group (20 mg/kg), vs model group, p < 0.001
# XOD [12] = details: HUA mice; each dose of gigantol (5, 10, 20 mg/kg); vs model group; p < 0.01, p < 0.01, p < 0.001
# NLRP3 [13] = assay: NLRP3 protein expression in HK-2 cells (Western blot); details: for NLRP3 / β (reference protein) ratio / NLRP3 protein expression, band value: HK-2, replicates 1-3; for NLRP3 protein level in HK-2 cells: HUA cell model
# TNF-α [14] = assay: TNF-α level in serum and kidney of HUA mice (ELISA); format: in vivo; details: HUA mice treated with gigantol; vs model group; p < 0.01
# Experimental: as §3
# ASC [15] = assay: ASC protein expression in kidney of HUA mice (Western blot); format: in vivo; details: gigantol high-dose group (20 mg/kg), vs model group, p < 0.001
# IL-1β [16] = assay: IL-1β content in HK-2 HUA cell model (ELISA); format: cell-based, human; details: only the high-dose group showing a downward trend (p < 0.01)
# Experimental: as §2
# [17] = system: mice with HUA induced by potassium oxonate; assay: Serum and urine UA, CRE and BUN in HUA mice; format: in vivo
# Experimental: On day 6, the mice were transferred to a metabolic cage, given free water and diet, and 24-h urine samples were collected for the determination of UA, CRE, and BUN levels. One hour after the last administration, 2 mL of blood was taken through eyeball extraction, and the mice were killed by euthanasia. Mice were dissected and the livers and kidneys were removed.
# as §3
# [18] = 50 and 100 µmol/L gigantol, vs model group
# [19] = gigantol intervention, especially high-dose group (p < 0.001), vs model
# [20] = HUA cell model, 50 and 100 µmol/L, vs model group
# [21] = HUA cell model, gigantol 25, 50, 100 µmol/L, dose-dependent
# [22] = 24-h urine, after gigantol treatment
# [23] = gigantol 5, 10, 20 mg/kg gavage 7 days, vs model group, high dose p < 0.001
substance,measurement,setting,value
5-[2-(3-hydroxy-5-methoxyphenyl) ethyl]-2-methoxyphenol [gigantol],renal histopathology: glomerulus injury,[1],a trend of recovery in the injury of the glomerulus
same,renal histopathology: urate crystals,[1],no urate crystals in the renal tubules
same,UA level in AML12 cells,AML12 cells,suppressed
same,liver histopathology,[2],the atrophy of liver cells significantly improved
same,TNF-α level in HK-2 cells,TNF-α [3],tended to decrease dose-dependently
same,GLUT9 protein expression in kidney,GLUT9,significantly reduced
same,renal IL-6 level,IL-6 [4],significantly lower
same,serum IL-6 level,IL-6 [4],significantly lower
same,IL-6 level in HK-2 cells,IL-6 [5],tended to decrease dose-dependently
same,asc / β (reference protein) ratio,ASC [6]; 中 = gigantol 50 µmol/L,0.7729 and 0.7908 and 0.8759
same,"asc protein expression, band value",ASC [6]; 中 = gigantol 50 µmol/L,134.385 and 146.868 and 166.261
same,asc / β (reference protein) ratio,ASC [6]; 低 = gigantol 25 µmol/L,0.9783 and 1.053 and 1.058
same,"asc protein expression, band value",ASC [6]; 低 = gigantol 25 µmol/L,161.976 and 197.704 and 190.261
same,asc / β (reference protein) ratio,ASC [6]; 高 = gigantol 100 µmol/L,0.7353 and 0.6853 and 0.7512
same,"asc protein expression, band value",ASC [6]; 高 = gigantol 100 µmol/L,136.893 and 134.134 and 146.281
same,ASC protein level in HK-2 cells,ASC [6]; [18],significantly reduced
same,ASC protein level in HK-2 cells,ASC [6]; [19],decreased significantly
same,OAT1 / β (reference protein) ratio,OAT1; 中 = gigantol 50 µmol/L,1.086 and 1.108 and 1.097
same,"OAT1 protein expression, band value",OAT1; 中 = gigantol 50 µmol/L,188.76 and 205.851 and 208.271
same,OAT1 / β (reference protein) ratio,OAT1; 低 = gigantol 25 µmol/L,1.029 and 1.058 and 0.975
same,"OAT1 protein expression, band value",OAT1; 低 = gigantol 25 µmol/L,170.32 and 198.69 and 175.271
same,OAT1 / β (reference protein) ratio,OAT1; 高 = gigantol 100 µmol/L,1.06 and 1.0745 and 1.075
same,"OAT1 protein expression, band value",OAT1; 高 = gigantol 100 µmol/L,197.371 and 210.308 and 209.271
same,OAT1 protein level in HK-2 cells,OAT1; [20],significantly increased
same,OAT1 protein expression in HK-2 cells,OAT1; [21],increase
same,xod / β (reference protein) ratio,XOD [7]; 中 = gigantol 50 µmol/L,1.517 and 1.501 and 1.526
same,"xod protein expression, band value",XOD [7]; 中 = gigantol 50 µmol/L,128.129 and 199.117 and 168.261
same,xod / β (reference protein) ratio,XOD [7]; 低 = gigantol 25 µmol/L,1.791 and 1.55 and 1.796
same,"xod protein expression, band value",XOD [7]; 低 = gigantol 25 µmol/L,141.242 and 241.421 and 177.271
same,xod / β (reference protein) ratio,XOD [7]; 高 = gigantol 100 µmol/L,1.329 and 1.446 and 1.393
same,"xod protein expression, band value",XOD [7]; 高 = gigantol 100 µmol/L,108.633 and 187.088 and 176.298
same,XOD protein expression in AML12 cells,XOD [7],significantly decreased
same,XOD protein expression in AML12 cells,XOD [7]; listed as Gigantol,downregulated
same,XOD protein expression in AML12 cells,XOD [7]; listed as gigatol,significantly reduced in a dose-dependent manner
same,OAT3 / β (reference protein) ratio,OAT3; 中 = gigantol 50 µmol/L,1.0464 and 0.924 and 0.8748
same,"OAT3 protein expression, band value",OAT3; 中 = gigantol 50 µmol/L,181.929 and 171.604 and 166.063
same,OAT3 / β (reference protein) ratio,OAT3; 低 = gigantol 25 µmol/L,0.8292 and 0.8811 and 0.9428
same,"OAT3 protein expression, band value",OAT3; 低 = gigantol 25 µmol/L,137.293 and 165.504 and 169.481
same,OAT3 / β (reference protein) ratio,OAT3; 高 = gigantol 100 µmol/L,0.9571 and 0.9652 and 1.021
same,"OAT3 protein expression, band value",OAT3; 高 = gigantol 100 µmol/L,178.19 and 188.909 and 198.88
same,OAT3 protein level in HK-2 cells,OAT3; [20],significantly increased
same,OAT3 protein expression in HK-2 cells,OAT3; [21],increase
same,NLRP3 protein expression in kidney,NLRP3 [8],decreased significantly
same,XOD activity in AML12 cells,XOD [9],downregulated
same,F,[10],16.82%
same,time of second peak of blood concentration,[10],approximately 2 h
same,IL-1β level in kidney,IL-1β [11],decreased
same,IL-1β level in serum,IL-1β [11],decreased
same,caspase-1 protein expression in kidney,caspase-1,decreased significantly
same,XOD protein expression in liver,XOD [12],significantly decreased
same,NLRP3 / β (reference protein) ratio,NLRP3 [13]; 中 = gigantol 50 µmol/L,0.7212 and 0.9246 and 0.7381
same,"NLRP3 protein expression, band value",NLRP3 [13]; 中 = gigantol 50 µmol/L,125.385 and 171.712 and 140.12
same,NLRP3 / β (reference protein) ratio,NLRP3 [13]; 低 = gigantol 25 µmol/L,0.7726 and 0.9621 and 1.043
same,"NLRP3 protein expression, band value",NLRP3 [13]; 低 = gigantol 25 µmol/L,127.912 and 180.721 and 187.495
same,NLRP3 / β (reference protein) ratio,NLRP3 [13]; 高 = gigantol 100 µmol/L,0.5752 and 0.7261 and 0.6462
same,"NLRP3 protein expression, band value",NLRP3 [13]; 高 = gigantol 100 µmol/L,107.093 and 142.123 and 125.837
same,NLRP3 protein level in HK-2 cells,"NLRP3 [13]; 25 μmol/L gigantol, vs model group",moderately reduced
same,NLRP3 protein level in HK-2 cells,NLRP3 [13]; [18],significantly reduced
same,NLRP3 protein level in HK-2 cells,NLRP3 [13]; [19],decreased significantly
same,renal TNF-α level,TNF-α [14],significantly lower
same,serum TNF-α level,TNF-α [14],significantly lower
same,ASC protein expression in kidney,ASC [15],decreased significantly
same,inhibitory effect on IL-1β in HK-2 cells,IL-1β [16],relatively weak
same,urine BUN level,[17]; [22],increased
same,urine CRE level,[17]; [22],increased
same,urine UA content,"[17]; 24-h urine, gigantol 5, 10, 20 mg/kg gavage, vs model group, p < 0.01",increased significantly in a dose-dependent manner
same,serum BUN level,[17]; [23],significantly reduced
same,serum CRE level,[17]; [23],significantly reduced
same,serum UA level,[17]; [23],significantly reduced
